According to the supplement of paper PMC10331698:
± gives the standard deviation of the averaged measurements.

Columns and labels:
Assay in all cases: level (log10 ratio to DMSO vehicle control); higher = higher biomarker level / cell amount than vehicle control
Settings in all cases: in DMSO
[1] = compound: CCN(CCO)S(=O)(=O)C(F)(F)C(F)(F)C(F)(F)C(F)(F)C(F)(F)C(F)(F)C(F)(F)C(F)(F)F [N-Ethyl-N-(2-hydroxyethyl)perfluorooctanesulfonamide]
Procedure: (§1)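 BioMAP Diversity Plus panel of 12 human primary cell co-culture systems (3C, 4H, LPS, SAg, BT, BF4T, BE3C, CASM3C, HDF3CGF, KF3CT, MyoF, Mphg). Compounds were added 1 h before stimulation and left for 24 h (MyoF 48 h; BT 72 h for soluble read-outs or 6 d for IgG). Biomarkers were read by ELISA, cytotoxicity by SRB, PBMC viability and proliferation by Alamar Blue. Each well value was divided by the mean of 8 DMSO control wells on the same plate and log10 transformed; duplicate blinded samples were tested at 4 concentrations.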

[2] = compound: FC(F)(F)C(F)(F)C(F)(F)C(F)(F)C(F)(F)C(F)(F)I [Perfluoro-1-iodohexane]
Procedure: as §1

[3] = compound: FC(F)(F)C(F)(F)C(F)(F)C(F)(F)C(F)(F)CCI [1-Iodo-1H,1H,2H,2H-perfluoroheptane]
Procedure: as §1

[4] = compound: NC(=O)C(F)(F)C(F)(F)C(F)(F)F [Heptafluorobutyramide]
Procedure: as §1

[5] = compound: O=C(O)C(F)(F)C(F)(F)C(F)(F)OC(F)(C(F)(F)F)C(F)(F)F [Perfluoro-4-isopropoxybutanoic acid]
Procedure: as §1

[6] = compound: O=C(O)C(F)(F)C(F)(F)F [Perfluoropropanoic acid]
Procedure: as §1

[7] = compound: O=C(O)C(F)(F)OC(F)(F)C(F)(F)OC(F)(F)F [Perfluoro-3,6-dioxaheptanoic acid]
Procedure: as §1

Test System	level (log10) ([1]; 6700 nM)	level (log10) ([1]; 20000 nM)	level (log10) ([2]; 6700 nM)	level (log10) ([2]; 20000 nM)	level (log10) ([2]; 60000 nM)	level (log10) ([3]; 6700 nM)	level (log10) ([3]; 20000 nM)	level (log10) ([3]; 60000 nM)	level (log10) ([4]; 6700 nM)	level (log10) ([4]; 20000 nM)	level (log10) ([4]; 60000 nM)	level (log10) ([5]; 6700 nM)	level (log10) ([5]; 20000 nM)	level (log10) ([5]; 60000 nM)	level (log10) ([6]; 6700 nM)	level (log10) ([6]; 20000 nM)	level (log10) ([6]; 60000 nM)	level (log10) ([7]; 6700 nM)	level (log10) ([7]; 20000 nM)	level (log10) ([7]; 60000 nM)
KF3CT:IL-1alpha	0.006 ± 0.028	-0.111	0.008 ± 0.017	0.005 ± 0.017	-0.014 ± 0.017	0.01 ± 0.016	0.009 ± 0.0057	-0.0295 ± 0.016	-0.0035 ± 0.0064	0.013 ± 0.0057	-0.0005 ± 0.032	0.0225 ± 0.019	0.0165 ± 0.0035	0.014 ± 0.025	-0.013 ± 0.05	-0.0035 ± 0.052	-0.04 ± 0.038	-0.011 ± 0.025	0.032 ± 0.03	-0.1 ± 0.067
CASM3C:CD141/Thrombomodulin	0.078 ± 0.014	0.191 ± 0.013	0.0055 ± 0.015	-0.006 ± 0.0028	-0.004 ± 0.0028	-0.011 ± 0.0085	0.0015 ± 0.012	0.0845 ± 0.012	0.017 ± 0.033	0.0065 ± 0.033	-0.016 ± 0.041	0 ± 0.018	-0.005 ± 0.02	0.0135 ± 0.029	-0.05 ± 0.031	0.024 ± 0.0099	0.0245 ± 0.066	0.032 ± 0.0085	0.019 ± 0.03	0.0295 ± 0.013
lMphg:CD62E/E-Selectin	0.0935 ± 0.0078	0.14 ± 0.0099	0.005 ± 0.0042	0.018 ± 0.02	0.0305 ± 0.033	-0.021 ± 0.067	-0.0215 ± 0.018	-0.028 ± 0.0028	0.035 ± 0.051	-0.009 ± 0.064	-0.0285 ± 0.054	-0.011 ± 0.027	0.007 ± 0.038	0.0005 ± 0.039	-0.008 ± 0.0057	-0.004 ± 0.0099	0.0385 ± 0.0035	0.0105 ± 0.0021	0.003 ± 0.017	0.061
CASM3C:CD142/Tissue Factor	-0.0325 ± 0.012	0.0145 ± 0.022	-0.009 ± 0.013	-0.018 ± 0.0042	-0.031	0.001 ± 0.0085	-0.0065 ± 0.005	-0.0295 ± 0.028	0.007 ± 0.034	-0.0105 ± 0.05	-0.031 ± 0.041	-0.018 ± 0.033	-0.011 ± 0.0042	0.0205 ± 0.025	-0.0995 ± 0.039	-0.0395 ± 0.03	-0.0085 ± 0.039	-0.049 ± 0.089	-0.0195 ± 0.097	0.014 ± 0.088
HDF3CGF:M-CSF	-0.101 ± 0.013	-0.27 ± 0.0071	0.0155 ± 0.019	0.024 ± 0.0028	-0.021 ± 0.034	-0.0275 ± 0.053	-0.0415 ± 0.011	-0.198 ± 0.11	-0.0145 ± 0.00071	-0.009	0.0165 ± 0.035	-0.016 ± 0.0071	-0.0135 ± 0.0078	-0.0055 ± 0.005	0.0065 ± 0.067	-0.042 ± 0.027	-0.0295 ± 0.042	-0.015 ± 0.0099	-0.013 ± 0.0042	-0.0105 ± 0.05
HDF3CGF:CXCL10/IP-10	-0.0725 ± 0.05	-0.206 ± 0.0057	-0.033 ± 0.014	-0.0435 ± 0.0035	-0.114 ± 0.076	-0.011 ± 0.0099	-0.053 ± 0.0071	-0.11 ± 0.023	0.007 ± 0.0099	0 ± 0.0057	0.0035 ± 0.011	-0.0135 ± 0.0064	-0.029 ± 0.011	-0.0615 ± 0.0035	-0.005 ± 0.0085	-0.001 ± 0.0028	0.02 ± 0.0071	0.007 ± 0.011	0.0095 ± 0.0078	-0.0075 ± 0.043
MyoF:Collagen III	-0.0045 ± 0.022	-0.228 ± 0.17	-0.0225 ± 0.0064	-0.039 ± 0.0057	-0.132 ± 0.036	0.0085 ± 0.029	0.0185 ± 0.0092	0.041 ± 0.013	-0.0025 ± 0.0092	0.0025 ± 0.011	-0.004 ± 0.02	-0.0095 ± 0.011	-0.001 ± 0.0014	0.0025 ± 0.021	0.0165 ± 0.012	0.0135 ± 0.016	0.0385 ± 0.015	-0.025 ± 0.0014	-0.001 ± 0.017	0.027 ± 0.038
CASM3C:LDLR	-0.076 ± 0.0057	-0.223 ± 0.021	-0.008 ± 0.0057	0.0155 ± 0.016	0.005 ± 0.028	0.0005 ± 0.011	0.009	0.013 ± 0.016	-0.017 ± 0.0014	-0.0145 ± 0.0064	0.024 ± 0.047	0.012 ± 0.0014	0.017 ± 0.011	0 ± 0.0014	-0.0845 ± 0.07	-0.036 ± 0.054	-0.022 ± 0.073	-0.0145 ± 0.033	-0.013 ± 0.037	-0.0015 ± 0.005
HDF3CGF:CD106/VCAM-1	-0.0825 ± 0.046	-0.173 ± 0.11	-0.027 ± 0.024	-0.032 ± 0.014	-0.405 ± 0.44	-0.0335 ± 0.019	-0.102 ± 0.033	-0.429 ± 0.011	0.0035 ± 0.0092	-0.012 ± 0.018	-0.0345 ± 0.054	-0.027 ± 0.062	-0.0545 ± 0.067	-0.0545 ± 0.00071	-0.0555 ± 0.0035	-0.018 ± 0.0014	0.0175 ± 0.052	-0.033 ± 0.024	0.023 ± 0.082	-0.039 ± 0.061
CASM3C:Proliferation	0.011 ± 0.04	-0.175 ± 0.005	0.023 ± 0.0071	-0.02 ± 0.013	-0.021 ± 0.067	-0.034 ± 0.0071	-0.101 ± 0.062	-0.106 ± 0.054	-0.0675 ± 0.098	0.0315 ± 0.018	-0.0275 ± 0.087	-0.018 ± 0.0099	-0.037 ± 0.025	-0.0085 ± 0.057	0.0065 ± 0.0035	-0.0355 ± 0.063	0.017 ± 0.033	0.02 ± 0.016	-0.034 ± 0.065	-0.077 ± 0.017
lMphg:CCL3/MIP-1alpha	0.0325 ± 0.035	0.112 ± 0.013	0.033 ± 0.031	0.023 ± 0.0042	0.0285 ± 0.033	0.0165 ± 0.032	0.003 ± 0.021	0.0185 ± 0.08	-0.0235 ± 0.039	-0.035 ± 0.024	-0.0015 ± 0.00071	-0.035 ± 0.0085	-0.0355 ± 0.029	-0.005 ± 0.037	-0.0105 ± 0.023	-0.0235 ± 0.0021	0.0115 ± 0.013	-0.0185 ± 0.026	-0.0065 ± 0.012	-0.0065 ± 0.019
lMphg:M-CSF	-0.001 ± 0.0057	0.0105 ± 0.0035	-0.0095 ± 0.0035	-0.032 ± 0.016	0.0085 ± 0.026	-0.043 ± 0.03	-0.0355 ± 0.012	-0.007 ± 0.013	-0.014 ± 0.018	-0.034 ± 0.025	-0.0135 ± 0.00071	-0.016 ± 0.0028	-0.0185 ± 0.015	0.016 ± 0.0085	-0.014 ± 0.0085	-0.0155 ± 0.00071	0.003 ± 0.017	-0.011 ± 0.016	0.003 ± 0.013	-0.0345 ± 0.029
KF3CT:CD54/ICAM-1	0.0415 ± 0.0078	0.002 ± 0.0028	0.001 ± 0.0085	0.008 ± 0.021	0 ± 0.011	0.0015 ± 0.019	-0.0045 ± 0.00071	-0.0165 ± 0.0021	-0.012 ± 0.014	-0.002 ± 0.0028	0.0015 ± 0.012	0.001 ± 0.016	-0.035 ± 0.0071	-0.0495 ± 0.016	-0.0135 ± 0.0092	-0.0015 ± 0.0021	0.004 ± 0.0028	-0.0055 ± 0.0035	-0.0115 ± 0.00071	-0.02 ± 0.011
KF3CT:MMP-9	0.01 ± 0.0085	-0.0875 ± 0.015	-0.0225 ± 0.0064	-0.0225 ± 0.0092	-0.044 ± 0.0099	-0.017 ± 0.011	-0.0265 ± 0.025	-0.029 ± 0.021	0.002	-0.0005 ± 0.00071	0.0035 ± 0.00071	0.0055 ± 0.0035	0.022 ± 0.02	0.078 ± 0.014	-0.0405 ± 0.012	-0.053 ± 0.035	-0.0105 ± 0.032	-0.0195 ± 0.033	-0.0205 ± 0.05	-0.028 ± 0.034
HDF3CGF:CD54/ICAM-1	0.133 ± 0.019	0.089 ± 0.0042	-0.014 ± 0.0099	-0.0225 ± 0.013	-0.0255 ± 0.0078	-0.0065 ± 0.013	-0.0215 ± 0.00071	-0.0195 ± 0.0064	-0.0045 ± 0.021	0.0035 ± 0.0092	-0.001 ± 0.0099	-0.009 ± 0.0071	-0.01 ± 0.0028	-0.031 ± 0.017	0.007 ± 0.016	0.0065 ± 0.005	-0.0045 ± 0.00071	0.002 ± 0.0014	-0.003 ± 0.0028	-0.008 ± 0.014
